The nature of this series: solubility of p-methoxybenzoic acid in water. It counts as physicochemical. From the text: p-Methoxybenzoic acid can be obtained under the trade name of DERMOSOFT® 688 from Dr. Straetmans GmbH in a cosmetical grade. The solubility of p-methoxybenzoic acid in water is approximately […]. For use in a cosmetic formulation the product is usually brought into solution with sodium hydroxide or potassium hydroxide in a small amount of water at warm temperatures and worked into an aqueous phase. To evolve the spectrum of effects of p-methoxybenzoic acid completely, afterwards the formula should be re-acidified to a pH-value of 5.5. […] This may show, that the initial homogenous solutions are merely meta-stable systems.

Converted amounts (≈) assume the structure as drawn.

The values below come from patent US7416722B2, “Concentrated, aqueous solutions of p-methoxybenzoic acid for use in cosmetic and dermatologic formulations” (Dr. Straetmans GmbH, priority 2005, dated 2008).

What is called solubility is how much of the substance goes into solution per volume. A low value points to little dissolved substance. Consider `COc1ccc(C(=O)O)cc1` [p-methoxybenzoic acid], for which the solubility is approximately 5000 µg/mL (≈ 32.9 mM).
